{"source": "patent US7098218B2", "about": "“Steroidal compounds for inhibiting steroid sulphatase” (priority 2001, dated 2006)", "key": {"STS": {"molecular_target": "T1, STS (Homo sapiens, UniProt P08842)", "T1 construct": "can be assessed using either intact MCF-7 breast cancer cells or placental microsomes", "T1 sequence (P08842 22-583)": "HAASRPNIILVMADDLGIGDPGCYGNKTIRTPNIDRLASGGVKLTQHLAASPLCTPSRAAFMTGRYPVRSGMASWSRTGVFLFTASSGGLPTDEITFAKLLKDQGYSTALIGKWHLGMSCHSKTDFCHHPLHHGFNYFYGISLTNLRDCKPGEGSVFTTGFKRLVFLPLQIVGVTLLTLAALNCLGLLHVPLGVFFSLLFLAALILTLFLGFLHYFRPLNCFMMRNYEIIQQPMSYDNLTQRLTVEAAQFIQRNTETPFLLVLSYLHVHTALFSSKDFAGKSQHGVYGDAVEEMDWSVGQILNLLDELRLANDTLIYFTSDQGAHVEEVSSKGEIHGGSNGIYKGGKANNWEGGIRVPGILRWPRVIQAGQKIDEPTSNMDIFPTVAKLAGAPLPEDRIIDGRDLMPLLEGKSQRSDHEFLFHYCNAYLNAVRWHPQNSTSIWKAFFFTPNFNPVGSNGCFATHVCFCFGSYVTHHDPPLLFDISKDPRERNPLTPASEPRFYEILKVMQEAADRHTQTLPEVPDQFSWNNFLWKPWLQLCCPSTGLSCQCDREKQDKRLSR", "experiment": "biochemical"}, "steroid sulphatase": {"molecular_target": "T2, steroid sulphatase (Homo sapiens, UniProt P08842)", "T2 sequence (P08842 22-583)": "T1 sequence (P08842 22-583)", "details": "cited from earlier work"}, "[1]": {"molecular_target": "T3, human placental steroid sulphatase (Homo sapiens, UniProt P08842)", "T3 construct": "Placental microsomes (100000 g fraction) were prepared from a positive-positive human placenta from a normal-term pregnancy; from tissue; host or cells: human placenta, microsomal fraction", "T3 sequence (P08842 22-583)": "T1 sequence (P08842 22-583)", "experiment": "Inhibition of oestrone sulphatase activity in human placental microsomes", "type": "biochemical"}, "[2]": {"molecular_target": "T4, E1-STS in intact MCF-7 cells (Homo sapiens, UniProt P08842)", "T4 construct": "endogenous in cells; host or cells: MCF-7 human breast cancer cells", "T4 sequence (P08842 22-583)": "T1 sequence (P08842 22-583)", "parameters": "dose or concentration left out as unconfirmed", "details": "cited from earlier work"}, "[3]": {"test_system": "rats (uterotrophic activity)", "details": "cited from earlier work"}, "breast tumour cells": {"test_system": "breast tumour cells", "details": "cited from earlier work"}, "[4]": {"test_system": "ovariectomised rats (uterine growth)", "experiment": "In vivo oestrogenicity, uterine growth in ovariectomised rats (Protocol 4)", "parameters": "species or system rat", "details": "10 mg/Kg/day for five days orally, uterine weight", "protocol": "The compounds of the present invention may be studied using an animal model, in particular in ovariectomised rats. In this model, compounds which are oestrogenic stimulate uterine growth.\nThe compound (10 mg/Kg day for five days) was administered orally to rats with another group of animals receiving vehicle only (propylene glycol). A further group received the estrogenic compound EMATE subcutaneously in an amount of […] for five days. At the end of the study uteri were obtained and weighed with the results being expressed as uterine weight/whole body weight×100."}, "rat liver STS": {"molecular_target": "T5, rat liver STS (Rattus norvegicus, UniProt P15589)", "T5 construct": "samples of liver tissue were obtained and oestrone sulphatase activity assayed; from tissue; host or cells: rat liver", "T5 sequence (P15589 20-577)": "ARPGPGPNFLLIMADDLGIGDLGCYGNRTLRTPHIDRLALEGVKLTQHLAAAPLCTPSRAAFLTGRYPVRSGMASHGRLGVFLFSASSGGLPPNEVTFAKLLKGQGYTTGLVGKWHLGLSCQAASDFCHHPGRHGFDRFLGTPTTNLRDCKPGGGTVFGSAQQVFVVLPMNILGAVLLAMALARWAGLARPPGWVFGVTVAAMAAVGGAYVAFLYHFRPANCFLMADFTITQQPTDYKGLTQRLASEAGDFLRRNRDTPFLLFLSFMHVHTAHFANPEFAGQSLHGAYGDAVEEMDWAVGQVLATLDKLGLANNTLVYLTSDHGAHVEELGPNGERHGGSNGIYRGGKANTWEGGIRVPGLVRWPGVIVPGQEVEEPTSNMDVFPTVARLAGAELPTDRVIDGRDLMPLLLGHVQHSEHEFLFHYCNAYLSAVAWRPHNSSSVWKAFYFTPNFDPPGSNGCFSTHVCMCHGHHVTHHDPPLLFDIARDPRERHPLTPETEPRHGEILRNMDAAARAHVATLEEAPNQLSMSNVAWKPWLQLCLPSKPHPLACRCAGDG", "experiment": "Inhibition of oestrone sulphatase activity in vivo, rat liver (Protocol 3)", "details": "rats; 10 mg/Kg/day for five days orally", "protocol": "The compounds of the present invention may be studied using an animal model, in particular in ovariectomised rats. In this model compounds which are oestrogenic stimulate uterine growth.\nThe compound (10 mg/Kg/day for five days) was administered orally to rats with another group of animals receiving vehicle only (propylene glycol). A further group received the compound EMATE subcutaneously in an amount of 10 μg/day for five days. At the end of the study samples of liver tissue were obtained and oestrone sulphatase activity assayed using 3 H oestrone sulphate as the substrate as previously described (see PCT/GB95/02638)."}, "[5]": {"details": "read-out: Mean % Inhibition ± SD"}}, "note": "“And” between values parts separate entries of the source, which are not always exact repeats. Equal entries are not always repeated."}
{"smiles": "NS(=O)(=O)Oc1ccc2c3c(c(=O)oc2c1)CCCCC3", "note": "[667 Coumate, reference compound]", "values": [{"measurement": "667 Coumate value: % Inhibition", "setting": "STS; 0.005 µM", "value": "5 nM = 63%Inhibition and 5 nM = 56%Inhibition"}, {"measurement": "inhibition at 0.005 µM", "setting": "STS; read-out: 667 Coumate value: % Inhibition", "value": 63, "unit": "%"}, {"measurement": "times more potent than EMATE in vitro", "setting": "steroid sulphatase", "value": "~3", "unit": "times"}]}
{"smiles": "C[C@]12CC[C@@H]3c4ccc(OS(N)(=O)=O)cc4CC[C@H]3[C@@H]1CCC2=O", "note": "[EMATE, estrone-3-O-sulfamate]", "values": [{"measurement": "IC50", "setting": "[1]", "value": 8, "unit": "nM"}, {"measurement": "inhibition of E1-STS activity", "setting": "[2]", "value": "more than 99%"}, {"measurement": "oral uterotrophic activity, times higher than that of oestradiol", "setting": "[3]", "value": 100, "unit": "times"}]}
{"smiles": "C[C@]12CC[C@@H]3c4ccc(O)cc4CC[C@H]3[C@@H]1CC[C@@H]2O", "note": "[Oestradiol, oestradiol]", "values": [{"measurement": "proliferative effect, fold greater than oestrone", "setting": "breast tumour cells", "value": 10, "unit": "fold"}]}
{"smiles": "CCCN1C(=O)CC2C3CCc4cc(OS(N)(=O)=O)ccc4C3CC[C@]2(C)C1=O", "note": "(some centres unmarked) [STX213]", "values": [{"measurement": "oestrogenicity (FIG. 2)", "setting": "[4]", "value": "lack of oestrogenicity"}]}
{"smiles": "CCCN1C(=O)CC2C3CCc4cc(OS(N)(=O)=O)ccc4C3CC[C@]2(C)C1=O", "note": "(some centres unmarked) [STX 213, 3Sulfamoyl-N-propyl-16,17-seco-estra-1,3,5(10)-triene-16,17-imide]", "values": [{"measurement": "IC50", "setting": "[1]", "value": 1, "unit": "nM"}, {"measurement": "inhibition at 0.0001 µM", "setting": "[1]; [5]", "value": "21.2 ± 0.8", "unit": "%"}, {"measurement": "inhibition at 0.001 µM", "setting": "[1]; [5]", "value": "49.3 ± 1.2", "unit": "%"}, {"measurement": "inhibition at 0.01 µM", "setting": "[1]; [5]", "value": "64.1 ± 4.6", "unit": "%"}, {"measurement": "inhibition at 0.1 µM", "setting": "[1]; [5]", "value": "84.6 ± 1.3", "unit": "%"}, {"measurement": "inhibition at 1 µM", "setting": "[1]; [5]", "value": "96.8 ± 0.8", "unit": "%"}, {"measurement": "inhibition at 10 µM", "setting": "[1]; [5]", "value": "99.3 ± 1.1", "unit": "%"}, {"measurement": "inhibition of rat liver STS (FIG. 3)", "setting": "rat liver STS", "value": "inhibition of rat liver STS"}]}
{"smiles": "C[C@]12CCC3c4ccc(OS(N)(=O)=O)cc4CCC3C1CC(=O)N(Cc1cccnc1)C2=O", "note": "(some centres unmarked) [STX 237, 3-Sulfamoyl-N-(3-picolyl)-16,17-seco-estra-1,3,5(10)-triene-16,17-imide]", "values": [{"measurement": "inhibition of STS (in words)", "setting": "[1]; in vitro", "value": "Good inhibition"}, {"measurement": "times more potent than EMATE", "setting": "[1]; ratio of IC50 values versus EMATE", "value": 18, "unit": "times"}, {"measurement": "inhibition of rat liver STS (FIG. 3)", "setting": "rat liver STS", "value": "inhibition of rat liver STS"}, {"measurement": "oestrogenicity (FIG. 2)", "setting": "[4]", "value": "lack of oestrogenicity"}]}
